Data published in US20190031618A1, “BENZIMIDAZOLE DERIVATIVES USEFUL AS CB-1 INVERSE AGONISTS” (Janssen Pharmaceutica NV, priority 2015, published 2019).

Assays:
[1] = molecular target: Human CB1R (Cannabinoid receptor 1) (Homo sapiens, UniProt P21554); assay: CB-1 in vitro cAMP (HTRF) assay; format: cell-based; details: HEK cells, cAMP HTRF, 250 nM forskolin; mean where tested more than once; read-out: CB1 HEK_cAMP EC50
In short: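 Intracellular cAMP from HTRF ratio (d2-cAMP vs Eu-cryptate anti-cAMP), converted to nM via per-plate standards, in stable human CB1R HEK-293 cells.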

[2] = molecular target: Human CB2R (Cannabinoid receptor 2) (Homo sapiens, UniProt P34972); assay: CB-2 in vitro cAMP (HTRF) assay; format: cell-based; details: HEK cells, cAMP HTRF, 250 nM forskolin; mean where tested more than once; read-out: CB2 HEK_cAMP EC50
In short: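 Competitive HTRF read-out (d2-labelled cAMP vs cryptate antibody) quantifies cAMP in stably transfected HEK-293 cells, seeded the day before at 4E5 cells/mL. Stimulation buffer: HBSS, 5 mM HEPES, 0.1% BSA, 0.5 mM IBMX; forskolin prepared at 1.5 μM in buffer; compounds serially diluted 1/3 in DMSO.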

Sequence of Human CB1R (Cannabinoid receptor 1) (P21554 whole entry): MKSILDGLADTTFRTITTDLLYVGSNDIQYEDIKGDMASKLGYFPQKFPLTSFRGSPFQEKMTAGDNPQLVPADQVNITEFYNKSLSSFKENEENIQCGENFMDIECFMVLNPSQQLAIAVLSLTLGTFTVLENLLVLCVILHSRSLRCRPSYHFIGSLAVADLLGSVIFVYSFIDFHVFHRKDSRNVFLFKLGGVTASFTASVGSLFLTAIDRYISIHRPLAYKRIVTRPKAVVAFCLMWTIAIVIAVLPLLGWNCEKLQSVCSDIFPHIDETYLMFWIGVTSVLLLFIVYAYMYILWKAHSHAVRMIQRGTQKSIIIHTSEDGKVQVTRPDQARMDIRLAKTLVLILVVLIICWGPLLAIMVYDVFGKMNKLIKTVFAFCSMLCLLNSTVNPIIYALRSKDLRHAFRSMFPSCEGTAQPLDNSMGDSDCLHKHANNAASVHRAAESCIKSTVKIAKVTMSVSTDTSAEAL
Sequence of Human CB2R (Cannabinoid receptor 2) (P34972 whole entry): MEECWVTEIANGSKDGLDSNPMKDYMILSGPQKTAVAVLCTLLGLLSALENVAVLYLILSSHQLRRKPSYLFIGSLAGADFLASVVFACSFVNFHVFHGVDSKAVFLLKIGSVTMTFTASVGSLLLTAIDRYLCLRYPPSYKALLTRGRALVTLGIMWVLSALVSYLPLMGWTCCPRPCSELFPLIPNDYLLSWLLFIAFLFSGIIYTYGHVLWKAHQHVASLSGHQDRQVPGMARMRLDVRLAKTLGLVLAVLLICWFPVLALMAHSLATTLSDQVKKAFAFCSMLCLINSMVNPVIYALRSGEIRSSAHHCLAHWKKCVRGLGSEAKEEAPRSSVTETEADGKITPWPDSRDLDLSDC

EC50 [1] | EC50 [2] | Structure (SMILES)
441 nM | 272 nM | Clc1ccc(C(c2ccc3nc(-c4ccoc4)n(-c4cccc(Cl)c4)c3c2)c2nccs2)cc1 (centres unmarked) [Example 376]
> 10000 nM | > 10000 nM | Clc1ccc(C(c2ccc3nc(-c4ccco4)n(-c4cccc(Cl)c4)c3c2)c2nccs2)cc1 (centres unmarked) [Example 377]
12 nM | > 10000 nM | O=S(=O)(N1CCC(n2c(C3CC3)nc3ccc(C(c4ccc(Cl)cc4)c4nccs4)cc32)CC1)C(F)(F)F (centres unmarked) [Example 384]
22 nM | > 10000 nM | Cc1nc2ccc(C(c3ccc(Cl)cc3)c3nccs3)cc2n1C1CCN(S(=O)(=O)C(F)(F)F)CC1 (centres unmarked) [Example 386]
242 nM | > 10000 nM | O=S(=O)(N1CCC(n2c(-c3ccncc3)nc3ccc(C(c4ccc(Cl)cc4)c4nccs4)cc32)CC1)C(F)(F)F (centres unmarked) [Example 390]
60 nM | > 10000 nM | O=S(=O)(N1CCC(n2c(C3CCC3)nc3ccc(C(c4ccc(Cl)cc4)c4nccs4)cc32)CC1)C(F)(F)F (centres unmarked) [Example 391]
4840 nM | > 10000 nM | O=S(=O)(N1CCC(n2c(-c3ccc(Cl)cc3)nc3ccc(C(c4ccc(Cl)cc4)c4nccs4)cc32)CC1)C(F)(F)F (centres unmarked) [Example 394]
137 nM | > 10000 nM | O=S(=O)(N1CCC(n2c(C3CCCC3)nc3ccc(C(c4ccc(Cl)cc4)c4nccs4)cc32)CC1)C(F)(F)F (centres unmarked) [Example 395]
221 nM | 91 nM | CC(C)Cc1nc2ccc(C(c3ccc(Cl)cc3)c3nccs3)cc2n1C1CCN(S(=O)(=O)C(F)(F)F)CC1 (centres unmarked) [Example 396]
> 10000 nM | > 10000 nM | CC(C)c1nc2ccc(C(c3ccc(Cl)cc3)c3nccs3)cc2n1C1CCN(S(=O)(=O)C(F)(F)F)CC1 (centres unmarked) [Example 397]
21 nM | > 10000 nM | O=S(=O)(N1CCC(n2cnc3ccc(C(c4ccc(Cl)cc4)c4nccs4)cc32)CC1)C(F)(F)F (centres unmarked) [Example 398]
6020 nM | > 10000 nM | CC(c1ccc(Cl)cc1)n1c(C2CC2)nc2ccc(C(c3ccc(Cl)cc3)c3nccs3)cc21 (centres unmarked) [Example 401]
192 nM | > 10000 nM | CC(C)c1nc2ccc(C(c3ccc(Cl)cc3)c3nccs3)cc2n1-c1cccc(Cl)c1 (centres unmarked) [Example 402]
6150 nM | > 10000 nM | Clc1ccc(C(c2ccc3nc(C4CNC4)n(CCc4cccc(Cl)c4)c3c2)c2nccs2)cc1 (centres unmarked) [Example 404]
4490 nM | 3350 nM | OC(c1ccc(Cl)cc1)(c1ccc2ncn(CCc3cccc(Cl)c3)c2c1)c1nccs1 (centres unmarked) [Example 405]
1690 nM | > 10000 nM | CC(C)(C)OC(=O)N1CC(c2nc3ccc(C(c4ccc(Cl)cc4)c4nccs4)cc3n2CCc2cccc(Cl)c2)C1 (centres unmarked) [Example 406]

EC50 [1] | EC50 [2] | Structure (SMILES)
3150 nM | > 10000 nM | CCOC(=O)N1CCC(n2c(C(C)(C)C)nc3ccc(C(c4ccc(Cl)cc4)c4nccs4)cc32)CC1 (centres unmarked) [Example 408]
623 nM | > 10000 nM | CCOC(=O)N1CCC(n2c(C3CCOCC3)nc3ccc(C(c4ccc(Cl)cc4)c4nccs4)cc32)CC1 (centres unmarked) [Example 412]
315 nM | > 10000 nM | CCOC(=O)c1nc2ccc(C(c3ccc(Cl)cc3)c3nccs3)cc2n1C1CCN(C(=O)OCC)CC1 (centres unmarked) [Example 413]
> 10000 nM | > 10000 nM | CCOC(=O)N1CCC(n2c(C(F)(F)F)nc3ccc(C(c4ccc(Cl)cc4)c4nccs4)cc32)CC1 (centres unmarked) [Example 415]
392 nM | > 10000 nM | CCCc1nc2ccc(C(c3ccc(Cl)cc3)c3nccs3)cc2n1C1CCN(C(=O)OCC)CC1 (centres unmarked) [Example 416]
2540 nM | > 10000 nM | CCOC(=O)N1CCC(n2c(C3CN(C(=O)OC(C)(C)C)C3)nc3ccc(C(c4ccc(Cl)cc4)c4nccs4)cc32)CC1 (centres unmarked) [Example 417]
1180 nM | > 10000 nM | CCOC(=O)N1CCC(n2c(-c3nccs3)nc3ccc(C(c4ccc(Cl)cc4)c4nccs4)cc32)CC1 (centres unmarked) [Example 419]
2320 nM | > 10000 nM | FC(F)(F)c1nc2ccc(C(c3ccc(Cl)cc3)c3nccs3)cc2n1CCc1cccc(Cl)c1 (centres unmarked) [Example 424]
> 10000 nM | > 10000 nM | CC(C)Cc1nc2ccc(C(c3ccc(Cl)cc3)c3nccs3)cc2n1-c1cccc(Cl)c1 (centres unmarked) [Example 433]
22.7 nM | > 10000 nM | CCc1nc2ccc(C(c3ccc(Cl)cc3)c3nccs3)cc2n1-c1cccc(Cl)c1 (centres unmarked) [Example 434]
> 10000 nM | > 10000 nM | Clc1ccc(C(c2ccc3ncn(-c4cccc(Cl)c4)c3c2)c2nccs2)cc1 (centres unmarked) [Example 435]
> 10000 nM | > 10000 nM | CCOC(=O)N1CCC(n2c(N(C)C)nc3ccc(C(c4ccc(Cl)cc4)c4nccs4)cc32)CC1 (centres unmarked) [Example 439]
999 nM | > 10000 nM | CCOC(=O)N1CCC(n2c(N)nc3ccc(C(c4ccc(Cl)cc4)c4nccs4)cc32)CC1 (centres unmarked) [Example 440]
2090 nM | > 10000 nM | CCOC(=O)N1CCC(n2c(-c3ccc(Cl)cc3)nc3ccc(C(c4ccc(Cl)cc4)c4nccs4)cc32)CC1 (centres unmarked) [Example 441]
3400 nM | > 10000 nM | Clc1ccc(-c2nc3ccc(C(c4ccc(Cl)cc4)c4nccs4)cc3n2C2CCCCC2)cc1 (centres unmarked) [Example 442]
1430 nM | 4950 nM | CCOC(=O)N1CCC(n2c(-c3ccc(Cl)cc3Cl)nc3ccc(C(c4ccc(Cl)cc4)c4nccs4)cc32)CC1 (centres unmarked) [Example 443]

The remaining lines, values behind:

Structure (SMILES) | EC50 [1] | EC50 [2]
Clc1ccc(C(c2ccc3nc(C4CC4)n(C4CCc5ccccc5C4)c3c2)c2nccs2)cc1 (centres unmarked) [Example 342] | 184 nM | > 10000 nM
Cc1nc2ccc(C(c3ccc(Cl)cc3)c3nccs3)cc2n1C1Cc2ccccc2C1 (centres unmarked) [Example 361] | 2020 nM | > 10000 nM
Clc1ccc(C(c2ccc3nc(C4CC4)n(C4Cc5ccccc5C4)c3c2)c2nccs2)cc1 (centres unmarked) [Example 362] | 212 nM | > 10000 nM
OCc1nc2ccc(C(c3ccc(Cl)cc3)c3nccs3)cc2n1-c1cccc(Cl)c1 (centres unmarked) [Example 374] | 1120 nM | > 10000 nM
Clc1ccc(C(c2ccc3nc(-c4ccsc4)n(-c4cccc(Cl)c4)c3c2)c2nccs2)cc1 (centres unmarked) [Example 375] | 755 nM | > 10000 nM
O=S(=O)(N1CCC(n2c(-c3ccccn3)nc3ccc(C(c4ccc(Cl)cc4)c4nccs4)cc32)CC1)C(F)(F)F (centres unmarked) [Example 385] | 524 nM | > 10000 nM
CCOC(=O)c1nc2ccc(C(c3ccc(Cl)cc3)c3nccs3)cc2n1C1CCN(S(=O)(=O)C(F)(F)F)CC1 (centres unmarked) [Example 387] | 551 nM | > 10000 nM
O=S(=O)(N1CCC(n2c(-c3cccnc3)nc3ccc(C(c4ccc(Cl)cc4)c4nccs4)cc32)CC1)C(F)(F)F (centres unmarked) [Example 393] | 28 nM | 63 nM
CCCc1nc2ccc(C(c3ccc(Cl)cc3)c3nccs3)cc2n1C1CCN(S(=O)(=O)C(F)(F)F)CC1 (centres unmarked) [Example 399] | 163 nM | > 10000 nM
Clc1ccc(C(c2ccc3nc(C4CC4)n(Cc4ccccn4)c3c2)c2nccs2)cc1 (centres unmarked) [Example 403] | 569 nM | > 10000 nM
CCc1nc2ccc(C(c3ccc(Cl)cc3)c3nccs3)cc2n1CCc1cccc(Cl)c1 (centres unmarked) [Example 409] | 47.8 nM | > 10000 nM
CCCc1nc2ccc(C(c3ccc(Cl)cc3)c3nccs3)cc2n1CCc1cccc(Cl)c1 (centres unmarked) [Example 410] | 308 nM | > 10000 nM
CCOC(=O)N1CCC(n2c(C3CCCO3)nc3ccc(C(c4ccc(Cl)cc4)c4nccs4)cc32)CC1 (centres unmarked) [Example 411] | 376 nM | > 10000 nM
CCOC(=O)N1CCC(n2c(C3CNC3)nc3ccc(C(c4ccc(Cl)cc4)c4nccs4)cc32)CC1 (centres unmarked) [Example 414] | 1490 nM | > 10000 nM
CCOC(=O)N1CCC(n2c(-c3ccc(Cl)cc3)nc3ccc(C(c4ccc(Cl)cc4)c4nccs4)cc32)CC1 (centres unmarked) [Example 418] | 1080 nM | > 10000 nM
CCOC(=O)N1CCC(n2c(CC(C)C)nc3ccc(C(c4ccc(Cl)cc4)c4nccs4)cc32)CC1 (centres unmarked) [Example 420] | 231 nM | > 10000 nM
CCOC(=O)N1CCC(n2c(C3CC3)nc3ccc(C(c4ccc(Cl)cc4)c4nccs4)cc32)CC1 (centres unmarked) [Example 421] | 112 nM | > 10000 nM
CCOC(=O)N1CCC(n2c(Cl)nc3ccc(C(c4ccc(Cl)cc4)c4nccs4)cc32)CC1 (centres unmarked) [Example 422] | 598 nM | > 10000 nM
Clc1ccc(C(c2ccc3nc(C4CC4)n(CCc4cccc(Cl)c4)c3c2)c2nccs2)cc1 (centres unmarked) [Example 423] | 17 nM | > 10000 nM
CCOC(=O)c1nc2ccc(C(c3ccc(Cl)cc3)c3nccs3)cc2n1-c1cccc(Cl)c1 (centres unmarked) [Example 429] | 437 nM | > 10000 nM
CCCc1nc2ccc(C(c3ccc(Cl)cc3)c3nccs3)cc2n1-c1cccc(Cl)c1 (centres unmarked) [Example 431] | 111 nM | > 10000 nM
Clc1ccc(C(c2ccc3nc(C4CC4)n(-c4cccc(Cl)c4)c3c2)c2nccs2)cc1 (centres unmarked) [Example 432] | 64.3 nM | > 10000 nM
Cc1nc2ccc(C(c3ccc(Cl)cc3)c3nccs3)cc2n1-c1cccc(Cl)c1 (centres unmarked) [Example 436] | 473 nM | > 10000 nM
Cc1nc2ccc(C(c3ccc(Cl)cc3)c3nccs3)cc2n1CCc1cccc(Cl)c1 (centres unmarked) [Example 437] | 192 nM | > 10000 nM
Clc1ccc(C(c2ccc3ncn(CCc4cccc(Cl)c4)c3c2)c2nccs2)cc1 (centres unmarked) [Example 438] | 315 nM | > 10000 nM
Clc1ccc(C(c2ccc3nc(-c4ccc(Cl)cc4Cl)n(C4CCCCC4)c3c2)c2nccs2)cc1 (centres unmarked) [Example 444] | 535 nM | > 10000 nM
